These results are taken from patent US20160262664A1, “Detection Of Disease Using Gesture Writing Bio-Markers” (priority 2015, published 2016).

The test deals with PD patient. Briefly: EMG analysis during rest, postural and writing activity in the same subject before and after medication (monitoring of drug effectiveness). In kind it is in vivo. As to conditions: after meds. An excerpt: Technology for detecting Parkinson's disease (PD) comprises of a group of indicators (endpoints) that are based on various Electromyography (EMG) properties of hand muscles during gesture writing as well as kinematics and pen traces. Gesture writing is the type of writing, when part of the time a pen is touching the tablet (writing activity) and part of the time a pen is not touching the tablet (postural activity). During postural period a hand is held against gravity. Postural EMG activity can be found programmatically by analyzing the writing activity, since it is known from the tablet recording when a pen was touching a tablet and not touching the tablet. In addition, EMG at rest is recorded, while both hands are lying on a table. The properties of resting EMG signals are also included in the analysis. Two differential channels of EMG are recorded from each hand. EMG recordings are synchronized with the input from the tablet PC.
In one example, 100 trials were administered. A beep sound denotes the end of one trial and beginning of the next trial. Writing activity was analyzed while a subject was writing a number “3” in cursive. The length of each trial was 5 sec. During “rest,” trials with a length of 5 sec each were generated. Postural trials were selected by a computer program. 100 trials for each type of activity were recorded. A large number of trials (around 100) is very important in the analysis, because muscle activity has high variability. A statistical ensemble is created in order for statistical analysis to be applied. A confidence interval was calculated to confirm the existence of peaks in Fast Fourier Transform (FFT).
Condition 1: Resting. The experimental session started with a recording where the participants were resting with both hands, forearms, and elbows on the table. During one continuous recording the experimenter triggered at least 25 trials of 5 seconds by touching the electronic pen on the tablet after each beep. In total 4 such files were recorded with 1-minute pauses in between, yielding 100 resting trials in total. During the pause the participants rested their hands on their knees.
Condition 2: Character-Writing and postural control of pen lift. After the resting session the participants were instructed to wait with the pen lifted while the entire forearm including elbow rested on the table. Upon hearing the beep participants were to touch the tablet with the pen and write character “3” as fast and convenient as possible and then lift the pen until the next beep. The next beep was automatically generated 4 seconds after the pen lift. As the participants were instructed to keep their forearms resting on the table the thumb muscles were optimally involved in producing character “3”. The non-writing arm rested on the table as in the resting condition. The writing segment was defined as the 5-second segment starting 2 seconds before the pen touched the writing surface till 3 seconds after that (See FIG. 3). We also defined a postural segment starting when the pen was lifted till the beep that was generated 4 seconds later. Thus each trial included a writing segment and a postural segment. The experimenter ensured that after the first trial at least 25 good trials were recorded. The experimenter ensured that at least 25 successful trials were recorded. This means that the subject had to write a complete character and only after that they lift up the pen and waited for a beep to start writing another character. All trials, including incidentally failed trials (except first and last one) were included in the analysis. After recording 25 acceptable trials, the participant was instructed to pause for 1 minute with both hands on the knees like in the resting condition. In total 4 files of 5 minutes were recorded yielding 100 trials.
Our Norconnect DH software (written in MATLAB, MathWorks, Natick, Mass., USA) processed the EMGs and handwriting kinematics to quantify 8 PD indicators (See Table 2). […]

[1] abbreviates: EMG spectral peak, in 4 channels.

Consider `C#CCN[C@@H]1CCc2ccccc21` [Rosageline], for which, under setting [1], the “Tremor, Postural” value is listed as “No (in 4” and the “Tremor, Rest” value is “No (in 4”. Further, the “Stiffness, spectral density maximum, Postural, ch3” value (ch3 left hand) is listed as “ch.3: 2 mV”. The “Stiffness, spectral density maximum, Postural, ch4” value (ch4 left hand) was “ch4: 1.1 (mV)”. Besides, the “Weakness, mean intensity, Writing, ch1” value (criterion <0.005 mV^2, ch1) is listed as “ch1: 0.003 mV^2”. Besides, under “criterion <0.005 mV^2, ch2”, the “Weakness, mean intensity, Writing, ch2” value is reported as “ch2: 0.018 (mV^2)”. Further, where the note is “criterion >0.5 mV, ch1 right hand”, the “Stiffness, spectral density maximum, Rest, ch1” value is recorded as “ch1: 2 mV”. The “Stiffness, spectral density maximum, Rest, ch2” value (criterion >0.5 mV, ch2 right hand) is “ch2: 2.4 mV”. Also, the “Stiffness, spectral density maximum, Rest, ch3” value (criterion >0.5 mV, ch3 left hand) is “ch3: 0.6 mV”. Besides, the “Stiffness, spectral density maximum, Rest, ch4” value (criterion >0.5 mV, ch4 left hand) was “ch4: 0.6 (mV)”. Besides, the “Stiffness, spectral density maximum, Postural, ch1” value (criterion >1 mV, ch1 right hand) is on record as “ch1: 2 mV”. For the same compound, the “Stiffness, spectral density maximum, Postural, ch2” value (criterion >1 mV, ch2 right hand) was “ch2: 7.5 mV”.
